Assay results: patent publication US20230310388A1, “Methods and Compositions for Treating Fungal Infections” (Neoculi Pty Ltd, priority 2020, published 2023)

Tests used:
[1] = test system: Candida albicans; experiment: CLSI broth microdilution MIC (Example 3); format: cell-based
Protocol: (§1) Antifungal minimum inhibitory concentration (MIC) testing was undertaken as recommended by the CLSI. Briefly, antifungal susceptibility tests were performed for amphotericin B, robenidine (NCL812) and 5 robenidine analogs (NCL062, NCL195, NCL219, NCL259, NCL265) by standard broth microdilution method (CLSI) in RPMI 1640. Various concentrations (ranging from high to low) of the selected compounds were prepared in RPMI 1640 medium by double dilution in 96-well microtitre plates. Each well contained an inoculum of approximately 2×10^3 cells/mL. The wells without addition of drugs served as negative (no inoculum) and positive (inoculum only) growth controls. Microtitre plates were incubated at 35° C. for 24-48 hours. […] Antifungal MICs were determined for each isolate in duplicate; if the values obtained were different, the MIC test was repeated a third time. Antifungal susceptibility tests were performed for amphotericin B and NCL analogs by standard broth microdilution method (CLSI). Briefly, various concentrations (ranging from high to low) of the selected compounds were prepared in RPMI 1640 medium by double dilution in the 96-well plates. Each well contained an inoculum of approximately 2×10^3 cells/mL. The wells without addition of drugs served as a negative control. Micro plates were incubated at 35° C. for 48 hour and read spectrophotometrically at 600 nm, using a microplate reader (Multiskan-EX; Thermo Elect. Corp., USA).

[2] = test system: Candida parapsilosis; experiment: CLSI broth microdilution MIC (Example 3); format: cell-based; conditions: Candida parapsilosis ATCC 22019
Protocol: as §1

[3] = test system: Candida albicans; experiment: CLSI broth microdilution MIC (Example 4); format: cell-based
Method in brief: (§2)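 CLSI broth microdilution in RPMI 1640 with two-fold compound dilutions and inoculum about 2×10^3 cells/mL. Plates incubated 35° C for 24-48 hours; MICs determined in duplicate, with a third test when the duplicates differed.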

[4] = test system: Cryptococcus neoformans; experiment: CLSI broth microdilution MIC (Example 4); format: cell-based
Method in brief: as §2

[5] = test system: Candida albicans; experiment: CLSI broth microdilution MIC (Example 5); format: cell-based
Protocol: (§3) Antifungal minimum inhibitory concentration (MIC) testing was undertaken as recommended by the CLSI. Briefly, antifungal susceptibility tests were performed for amphotericin B, robenidine (NCL812) and robenidine analogs (NCL23, NCL24, NCL97, NCL113, NCL115, NCL195, NCL219, NCL220, NCL259, NCL265) by standard broth microdilution method (CLSI) in RPMI 1640. Various concentrations (ranging from high to low) of the selected compounds were prepared in RPMI 1640 medium by double dilution in 96-well microtitre plates. Each well contained an inoculum of approximately 2×10^3 cells/mL. The wells without addition of drugs served as negative (no inoculum) and positive (inoculum only) growth controls. Microtitre plates were incubated at 35° C. for 24-48 hours. […] Antifungal MICs were determined for each isolate in duplicate; if the values obtained were different, the MIC test was repeated a third time.

[6] = test system: Cryptococcus neoformans; experiment: CLSI broth microdilution MIC (Example 5); format: cell-based
Protocol: as §3

[7] = test system: Candida albicans; experiment: CLSI broth microdilution MIC (Example 6); format: cell-based
Protocol: (§4) Antifungal minimum inhibitory concentration (MIC) testing was undertaken as recommended by the CLSI (1). Briefly, antifungal susceptibility tests were performed for amphotericin B, robenidine (NCL812) and 10 robenidine analogs (NCL023, NCL024, NCL097, NCL113, NCL115, NCL195, NCL219, NCL220, NCL259, NCL265) by standard broth microdilution method (CLSI) in RPMI 1640. Various concentrations (ranging from high to low) of the selected compounds were prepared in RPMI 1640 medium by double dilution in 96-well microtitre plates. Each well contained an inoculum of approximately 2×10^3 cells/mL. The wells without addition of drugs served as negative (no inoculum) and positive (inoculum only) growth controls. Microtitre plates were incubated at 35° C. for 24-48 hours. […] Antifungal MICs were determined for each isolate in duplicate; if the values obtained were different, the MIC test was repeated a third time.

[8] = test system: Cryptococcus neoformans; experiment: CLSI broth microdilution MIC (Example 6); format: cell-based
Protocol: as §4

[9] = test system: C. gattii; experiment: CLSI broth microdilution MIC (Example 6); format: cell-based, Cryptococcus gattii
Protocol: as §4

[10] = test system: Candida albicans ATCC14053; experiment: Broth micro-dilution screen at 16 μg/mL and MIC (Example 9); format: cell-based
Protocol: The antifungal activity of 201 NCL analogs against Candida albicans ATCC14053 in vitro was investigated. A broth micro-dilution method was used, according to CLSI guidelines as described. NCL analogs were dissolved in DMSO and originally screened at a single concentration of 16 μg/mL.

[11] = Candida albicans ATCC 90028, 1st
[12] = Candida albicans ATCC 90028, 2nd
[13] = clinical isolate C. albicans 12-93301752 Azole Resistant
[14] = clinical isolate C. albicans 14-90045999 Azole Resistant
[15] = clinical isolate C. albicans 15-45171061
[16] = clinical isolate C. albicans 15-91329871
[17] = clinical isolate C. albicans 16-24136919 Azole Resistant
[18] = clinical isolate C. albicans 16-46177400
[19] = clinical isolate C. albicans 16-90050810
[20] = clinical isolate C. albicans 16-90054237
[21] = clinical isolate C. albicans 18-144-00196
[22] = clinical isolate C. albicans 18-148-08188 Azole Resistant
[23] = human clinical isolate C. neoformans serotype A/D hybrid
[24] = human clinical isolate C. neoformans var grubii 16-90050434
[25] = human clinical isolate C. neoformans var grubii 17-90028233
[26] = human clinical isolate C. neoformans var grubii 17-93996464
[27] = human clinical isolate C. neoformans var grubii 17-93996964
[28] = human clinical isolate C. gatti 17-90232099
[29] = human clinical isolate C. gattii 16-90050373
[30] = human clinical isolate C. gattii 17-90028211
[31] = human clinical isolate C. gattii 17-90028217
[32] = human clinical isolate C. gattii 17-90028242

C[C@@H]1[C@H](O)[C@@H](C)/C=C/C=C/C=C/C=C/C=C/C=C/C=C/[C@H](O[C@@H]2O[C@H](C)[C@@H](O)[C@H](N)[C@@H]2O)C[C@@H]2O[C@](O)(C[C@@H](O)C[C@@H](O)[C@H](O)CC[C@@H](O)C[C@@H](O)CC(=O)O[C@H]1C)C[C@H](O)[C@H]2C(=O)O [Amphotericin B, reference compound]
0.25 µg/mL: MIC [1, 11] | MIC [5, 14] | MIC [5, 18] | MIC [5, 21] | MIC ([6]; Cryptococcus neoformans SA1) | MIC ([6]; Cryptococcus neoformans SA2)
0.5 µg/mL: MIC [1, 12] | MIC ([1]; Candida albicans, 1st) | MIC ([2]; 1st) | MIC ([2]; 2nd) | MIC at 24-48 hours ([3]; Candida albicans ATCC 90028) | MIC ([5]; Candida albicans ATCC 90028) | MIC [5, 13] | MIC [5, 17] | MIC [5, 22] | MIC ([7]; Candida albicans ATCC 90028) | MIC [8, 23] | MIC [9, 31]
2 µg/mL: MIC at 24-48 hours ([3]; Candida albicans SA3) | MIC ([5]; C. albicans SA3) | MIC ([7]; C. albicans SA3) | MIC [8, 25]
0.3 µg/mL: MIC at 24-48 hours ([4]; Cryptococcus neoformans SA1) | MIC at 24-48 hours ([4]; Cryptococcus neoformans SA2) | MIC ([8]; Cryptococcus neoformans SA1) | MIC ([8]; Cryptococcus neoformans SA2)
0.125 µg/mL: MIC [5, 15] | MIC [5, 16] | MIC [5, 19] | MIC [5, 20]
1 µg/mL: MIC ([1]; Candida albicans, 2nd) | MIC [8, 24] | MIC [8, 26] | MIC [8, 27] | MIC [9, 28] | MIC [9, 29] | MIC [9, 30] | MIC [9, 32]

C/C(=N\NC(=N)N/N=C(\C)c1ccc(C(C)(C)C)cc1)c1ccc(C(C)(C)C)cc1.Cl [NCL219]
>64 µg/mL: MIC ([10]; C. albicans ATCC14053, test range 0.25-64 μg/mL, duplicate)
16 µg/mL: MIC at 24-48 hours ([3]; Candida albicans SA3) | MIC ([5]; C. albicans SA3) | MIC ([7]; C. albicans SA3)
2 µg/mL: MIC at 24-48 hours ([4]; Cryptococcus neoformans SA1) | MIC at 24-48 hours ([4]; Cryptococcus neoformans SA2) | MIC ([6]; Cryptococcus neoformans SA1) | MIC ([6]; Cryptococcus neoformans SA2) | MIC ([8]; Cryptococcus neoformans SA1) | MIC ([8]; Cryptococcus neoformans SA2)
8 µg/mL: MIC [5, 15]
>16 µg/mL: MIC [5, 13] | MIC [5, 16] | MIC [5, 17] | MIC [5, 18] | MIC [5, 19] | MIC [5, 20] | MIC [5, 21] | MIC [5, 22]
Growth: Screen at 16 μg/mL ([10]; single concentration 16 μg/mL, Growth or No growth of C. albicans ATCC14053)
high antifungal activity: antifungal activity against the two isolates of Candida albicans ([3]; summary in words)
highly active: activity against one or more isolates of Cryptococcus neoformans and Candida albicans ([5]; summary in words)
32 µg/mL: MIC at 24-48 hours ([3]; Candida albicans ATCC 90028) | MIC ([5]; Candida albicans ATCC 90028) | MIC ([7]; Candida albicans ATCC 90028)
>32 µg/mL: MIC [1, 11] | MIC [1, 12] | MIC ([1]; Candida albicans, 1st) | MIC ([1]; Candida albicans, 2nd) | MIC ([2]; 1st) | MIC ([2]; 2nd) | MIC [8, 23] | MIC [8, 24] | MIC [8, 25] | MIC [8, 26] | MIC [8, 27] | MIC [9, 28] | MIC [9, 29] | MIC [9, 30] | MIC [9, 31] | MIC [9, 32]
4 µg/mL: MIC [5, 14]
